# Experiments:
# human orexin 2 receptors [1] = molecular target: T1, human orexin 2 receptors (Homo sapiens (Human), UniProt O43614); assay: Calcium Accumulation in Cells (FLIPR), antagonism of orexin A; format: cell-based; details: for Ki: antagonism of orexin A, Cheng-Prusoff corrected, read-out: FLIPR hOx2R Ki; for inhibition at 10 µM: measured at a concentration of 10 μM of compound, read-out: FLIPR hOx2R % inhibition value
# Method in brief: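 Antagonism was measured as block of orexin A-evoked Ca²⁺ fluorescence (FLIPR), with orexin A added one hour after test compound (usually 10^−9–10^−5 M), which was first read alone for agonist activity. Human orexin 2 receptor cells were dye-loaded with 2 μM Fluo4-AM and 0.1 mM probenecid for 1 h.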
# human orexin 1 receptors [2] = molecular target: T2, human orexin 1 receptors (Homo sapiens (Human), UniProt O43613); assay: as above; format: cell-based; details: for Ki: antagonism of orexin A, Cheng-Prusoff corrected, read-out: FLIPR hOx1R Ki; for inhibition at 10 µM: measured at a concentration of 10 μM of compound, read-out: FLIPR hOx1R % inhibition value
# T2 sequence (O43613 whole entry): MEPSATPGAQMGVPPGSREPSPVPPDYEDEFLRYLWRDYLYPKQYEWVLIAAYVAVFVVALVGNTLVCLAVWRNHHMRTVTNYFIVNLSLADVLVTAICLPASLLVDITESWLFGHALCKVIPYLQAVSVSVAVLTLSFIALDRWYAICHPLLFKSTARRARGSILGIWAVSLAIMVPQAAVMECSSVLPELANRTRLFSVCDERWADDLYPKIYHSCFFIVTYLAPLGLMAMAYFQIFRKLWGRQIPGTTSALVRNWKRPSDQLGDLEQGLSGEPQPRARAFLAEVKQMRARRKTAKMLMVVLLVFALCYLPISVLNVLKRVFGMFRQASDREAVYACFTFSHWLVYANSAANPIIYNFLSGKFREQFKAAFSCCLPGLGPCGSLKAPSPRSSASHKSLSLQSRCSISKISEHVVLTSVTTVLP
# human orexin 2 receptors [3] = molecular target: T1, human orexin 2 receptors; assay: Radioligand Binding Assay II ([3H]-SB649868 competition, cell membranes); details: read-out: binding II hOx2R Kd
# Description: (§1) Radioligand Binding Assay II
# (§2) For crude cell membrane preparations, cells (CHO, Chinese hamster ovary or HEK, human embryonic kidney) expressing human orexin 1 or human orexin 2 receptors, were washed with HEPES (10 mM, pH 7.5), scraped off the culture plates with the same buffer, and centrifuged at 4° C. for 5 min at 2500×g. The cell pellet was either stored at −80° C. or used directly. Before the experiments, cell membranes were re-suspended in binding assay buffer (10 mM HEPES, 0.5% (w/v) bovine serum albumin, pH 7.5) by homogenisation with a Polytron homogeniser at 50 Hz for 20 s. Cell membranes were also used as made available by commercial providers.
# (§3) Bound radioactivity was measured, and data were analysed with the program XLFIT or Graphpad Prism. Protein concentration was determined according to the Bradford/BioRad Protein Assay Kit.
# (§4) In competition experiments, cell homogenates (150 μl) were incubated in assay buffer (10 mM HEPES, pH 7.5, 0.5% (w/v) bovine serum albumin, 5 mM MgCl2, 1 mM CaCl2, and tween 0.05%) for 1 h at room temperature with about 1 nM of the radioligand [^3H]-SB649868, 66 Ci/mmole, 50 μl), and with various concentrations of compounds of the invention (50 μl) in triplicates; non-specific binding was determined in the presence of almorexant (10 μM). Reactions were terminated by vacuum filtration, 3 washes of ice cold wash buffer (Tris-HCl pH 7.4/10 mM, with NaCl 154 mM).
# human orexin 1 receptors [4] = molecular target: T2, human orexin 1 receptors; assay: as above; details: read-out: binding II hOx1R Kd
# Description: as §1, §2, §3
# as §4, with “mM). Competition data is expressed in Table 2 as Kd [μM].” for “mM).”
# T1 sequence (O43614 whole entry): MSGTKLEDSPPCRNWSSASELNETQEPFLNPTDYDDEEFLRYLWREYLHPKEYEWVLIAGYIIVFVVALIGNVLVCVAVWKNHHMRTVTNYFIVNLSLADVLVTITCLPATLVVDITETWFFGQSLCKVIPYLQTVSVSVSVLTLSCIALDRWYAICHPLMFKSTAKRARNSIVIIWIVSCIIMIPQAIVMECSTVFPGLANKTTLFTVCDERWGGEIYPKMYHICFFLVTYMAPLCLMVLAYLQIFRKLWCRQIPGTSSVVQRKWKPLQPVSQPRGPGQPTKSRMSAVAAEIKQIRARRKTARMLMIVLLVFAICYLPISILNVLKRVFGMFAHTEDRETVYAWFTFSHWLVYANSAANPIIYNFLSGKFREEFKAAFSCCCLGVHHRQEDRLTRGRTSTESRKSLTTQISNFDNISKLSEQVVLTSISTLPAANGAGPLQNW
SMILES,Ki (human orexin 2 receptors [1]) [nM],Ki (human orexin 1 receptors [2]) [nM],Kd (human orexin 2 receptors [3]) [nM],Kd (human orexin 1 receptors [4]) [nM],inhibition at 10 µM (human orexin 1 receptors [2]) [%],inhibition at 10 µM (human orexin 2 receptors [1]) [%]
"COc1ccc2c(c1)CC[C@@H]2NC(=O)C(C)Oc1cc(C)c2c(C3CC3)nn(C)c2n1 (single isomer, unassigned) [Example 6.71, (R or S)-2-(3-cyclopropyl-1,4-dimethyl-1H-pyrazolo[3,4-b]pyridin-6-yloxy)-N-((S)-5-methoxy-2,3-dihydro-1H-inden-1-yl)propanamide]",55,348,95,589,–,–
"COc1ccc2c(c1)CCC2NC(=O)COc1cc(C)c2c(C3CC3)nn(C)c2n1 (stereo not drawn) [Example 6.3, 2-(3-cyclopropyl-1,4-dimethyl-1H-pyrazolo[3,4-b]pyridin-6-yloxy)-N-(5-methoxy-2,3-dihydro-1H-inden-1-yl)acetamide]",–,192,–,101,–,–
"COc1ccc2c(c1)CC[C@@H]2NC(=O)COc1cc(C)c2c(C3CC3)nn(C)c2n1 [Example 6.5, (S)-2-(3-cyclopropyl-1,4-dimethyl-1H-pyrazolo[3,4-b]pyridin-6-yloxy)-N-(5-methoxy-2,3-dihydro-1H-inden-1-yl)acetamide]",–,152,–,67,–,–
"COc1ccc([C@H](C)NC(=O)COc2cc(C)c3c(-c4cc(OC)cc(OC)c4)nn(C)c3n2)cc1 [Example 6.36, (S)-2-(3-(3,5-dimethoxyphenyl)-1,4-dimethyl-1H-pyrazolo[3,4-b]pyridin-6-yloxy)-N-(1-(4-methoxyphenyl)ethyl)acetamide]",323,–,498,19,–,–
"COc1ccc(CNC(=O)COc2cc(C)c3c(C4CC4)nn(C)c3n2)c(OC)c1 [Example 7.27, 2-(3-cyclopropyl-1,4-dimethyl-1H-pyrazolo[3,4-b]pyridin-6-yloxy)-N-(2,4-dimethoxybenzyl)acetamide]",472,–,–,–,48,–
"Cc1ccc2c(c1)C(NC(=O)COc1cc(C)c3c(C4CC4)nn(C)c3n1)CC2 (stereo not drawn) [Example 7.28, 2-(3-cyclopropyl-1,4-dimethyl-1H-pyrazolo[3,4-b]pyridin-6-yloxy)-N-(6-methyl-2,3-dihydro-1H-inden-1-yl)acetamide]",–,–,–,–,34,37
"Cc1cccc(C(C)NC(=O)COc2cc(C)c3c(C4CC4)nn(C)c3n2)c1 (stereo not drawn) [Example 7.29, 2-(3-cyclopropyl-1,4-dimethyl-1H-pyrazolo[3,4-b]pyridin-6-yloxy)-N-(1-m-tolylethyl)acetamide]",900,1800,–,–,–,–
"Cc1cc(OCC(=O)NC(C)c2nc3ccc(Cl)cc3s2)nc2c1c(C1CC1)nn2C (stereo not drawn) [Example 7.30, N-(1-(6-chlorobenzo[d]thiazol-2-yl)ethyl)-2-(3-cyclopropyl-1,4-dimethyl-1H-pyrazolo[3,4-b]pyridin-6-yloxy)acetamide]",–,938,–,–,–,26
"Cc1ccc2c(cnn2C)c1CNC(=O)COc1cc(C)c2c(C3CC3)nn(C)c2n1 [Example 7.31, 2-(3-cyclopropyl-1,4-dimethyl-1H-pyrazolo[3,4-b]pyridin-6-yloxy)-N-((1,5-dimethyl-1H-indazol-4-yl)methyl)acetamide]",833,857,–,–,–,–
"COc1cccc2c1CCCC2NC(=O)COc1cc(C)c2c(C3CC3)nn(C)c2n1 (stereo not drawn) [Example 7.32, 2-(3-cyclopropyl-1,4-dimethyl-1H-pyrazolo[3,4-b]pyridin-6-yloxy)-N-(5-methoxy-1,2,3,4-tetrahydronaphthalen-1-yl)acetamide]",301,138,–,–,–,–
"CCOc1ccc(CNC(=O)COc2cc(C)c3c(C4CC4)nn(C)c3n2)cc1 [Example 7.33, 2-(3-cyclopropyl-1,4-dimethyl-1H-pyrazolo[3,4-b]pyridin-6-yloxy)-N-(4-ethoxybenzyl)acetamide]",–,3170,–,–,–,24
"Cc1cc(OCC(=O)NC(C)c2cnc3c(ccn3C)c2)nc2c1c(C1CC1)nn2C (stereo not drawn) [Example 8.1, 2-(3-cyclopropyl-1,4-dimethyl-1H-pyrazolo[3,4-b]pyridin-6-yloxy)-N-(1-(1-methyl-1H-pyrrolo[2,3-b]pyridin-5-yl)ethyl)acetamide]",165,92,–,–,–,–

# From patent publication US8742106B2 (Novartis AG, priority 2009, dated 2014)
